From patent US9139557B2, “Carboxamide compounds and their use as calpain inhibitors” (Abbott GmbH & Co. KG, priority 2006, dated 2015) come the findings set out here.

Common to all, as to assay type: biochemical
One assay has as its target T1, cathepsin B (Homo sapiens, UniProt P07858).
T1 construct: cathepsin B—isolated from human liver; purchased Calbiochem 219362; host or cells: human liver (tissue isolate)
Briefly: Cathepsin B enzyme inhibition in vitro (kinetic fluorescence assay). Conditions: Ki(cathepsin B)/Ki(calpain) ratio. The gist of the method:
(§1)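 Kinetic fluorescence (ex 390/em 460 nm), room temperature: calpain-I (human erythrocyte, 20 nM) with 100 µM Suc-Leu-Tyr-AMC, imidazole/CaCl2 pH 7.3; cathepsin B (liver, 0.25 nM), 100 µM Z-Phe-Arg-AMC; L (liver, 1 nM), 2 µM Z-Phe-Arg-AMC; S (recombinant, 0.5 nM), 20 µM Z-Val-Val-Arg-AMC; cathepsins in MES/EDTA/cysteine pH 6.0. Apparent Ki via Cheng-Prusoff, 2–4 curves averaged.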

The next assay deals with T2, cathepsin K (Homo sapiens, UniProt P43235).
T2 construct: purchased Calbiochem 342001; host or cells: E. coli
T2 sequence (P43235 115-329): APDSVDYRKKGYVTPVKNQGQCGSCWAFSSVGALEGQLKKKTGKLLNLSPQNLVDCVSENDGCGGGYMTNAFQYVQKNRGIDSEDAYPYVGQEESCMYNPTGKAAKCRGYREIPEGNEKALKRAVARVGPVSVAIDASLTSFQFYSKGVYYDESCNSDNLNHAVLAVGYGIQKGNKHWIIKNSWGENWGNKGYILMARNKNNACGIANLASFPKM
Nature of the assay: Cathepsin K enzyme inhibition in vitro (kinetic fluorescence assay). The note with it: Ki(cathepsin K)/Ki(calpain) ratio.

For a further assay, the target named is T3, cathepsin L (Homo sapiens, UniProt P07711).
T3 construct: cathepsin L—isolated from human liver; purchased Calbiochem 219402; host or cells: human liver (tissue isolate)
T3 sequence (P07711 114-333): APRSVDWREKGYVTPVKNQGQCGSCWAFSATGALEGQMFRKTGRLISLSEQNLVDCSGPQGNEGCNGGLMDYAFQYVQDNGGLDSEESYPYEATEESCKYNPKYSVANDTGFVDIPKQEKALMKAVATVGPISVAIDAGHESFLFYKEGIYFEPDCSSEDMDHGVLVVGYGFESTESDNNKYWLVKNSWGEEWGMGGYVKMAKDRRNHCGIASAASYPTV
Briefly: Cathepsin L enzyme inhibition in vitro (kinetic fluorescence assay). The note with it: Ki(cathepsin L)/Ki(calpain) ratio. The gist of the method: as §1

Another assay concerns the target T4, cathepsin S (Homo sapiens, UniProt P25774).
T4 construct: purchased Calbiochem 219343; host or cells: E. coli
Nature of the assay: Cathepsin S enzyme inhibition in vitro (kinetic fluorescence assay). The note with it: Ki(cathepsin S)/Ki(calpain) ratio. The method in brief:
as §1

T4 sequence (P25774 115-331): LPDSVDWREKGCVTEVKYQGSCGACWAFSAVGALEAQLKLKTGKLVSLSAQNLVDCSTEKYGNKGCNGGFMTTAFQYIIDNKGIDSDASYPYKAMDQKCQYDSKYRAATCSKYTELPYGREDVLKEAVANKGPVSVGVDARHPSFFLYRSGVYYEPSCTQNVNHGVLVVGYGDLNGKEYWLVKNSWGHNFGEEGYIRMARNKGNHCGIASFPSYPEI

As to `NC(=O)C(=O)C(Cc1ccc(Cl)cc1)NC(=O)c1cccnc1-n1ccc(-c2ccc(F)cc2)n1` (centres unmarked) [Example 67, N-[3-Amino-1-(4-chlorobenzyl)-2,3-dioxopropyl]-2-[3-(4-fluorophenyl)-1H-pyrazol-1-yl]nicotinamide], the “Sel cat. B” value on cathepsin B is “+ (+ means 10≦Ki(cathepsin B)/Ki(calpain)<30)”. For the same molecule, on cathepsin K, the “Sel cat. K” value is given as “+ (+ means 10≦Ki(cathepsin K)/Ki(calpain)<30)”. At cathepsin L, the “Sel cat. L” value is recorded as “++ (++ means a Ki(cathepsin L)/Ki(calpain) ratio of ≧50)”. Besides, at cathepsin S, the “Sel cat. S” value is “++ (++ means a Ki(cathepsin S)/Ki(calpain) ratio of ≧100)”.

Consider `NC(=O)C(=O)C(Cc1ccccc1)NC(=O)c1cccnc1-n1ccc(-c2ccc(N3CCOCC3)cc2F)n1` (centres unmarked) [Example 102, N-[3-Amino-2,3-dioxo-1-(phenylmethyl)propyl]-2-[3-(2-fluoro-4-morpholin-4-ylphenyl)-1H-pyrazol-1-yl]pyridine-3-carboxamide], for which, at cathepsin B, the “Sel cat. B” value is listed as “+ (+ means 10≦Ki(cathepsin B)/Ki(calpain)<30)”. Besides, at cathepsin K, the “Sel cat. K” value is “++ (++ means a Ki(cathepsin K)/Ki(calpain) ratio of ≧30)”. Moreover, the “Sel cat. L” value at cathepsin L is reported as “++ (++ means a Ki(cathepsin L)/Ki(calpain) ratio of ≧50)”. Moreover, the “Sel cat. S” value at cathepsin S is recorded as “++ (++ means a Ki(cathepsin S)/Ki(calpain) ratio of ≧100)”.

Take `NC(=O)C(=O)C(Cc1ccccc1)NC(=O)c1cccnc1-n1ccc(-c2cccc3cccnc23)n1` (centres unmarked) [Example 160, N-[3-amino-2,3-dioxo-1-(phenylmethyl)propyl]-2-(3-quinolin-8-yl-1H-pyrazol-1-yl)pyridine-3-carboxamide]: the “Sel cat. B” value on cathepsin B is given as “++ (++ means a Ki(cathepsin B)/Ki(calpain) ratio of ≧30)”. Besides, the “Sel cat. K” value at cathepsin K is “++ (++ means a Ki(cathepsin K)/Ki(calpain) ratio of ≧30)”. Besides, at cathepsin L, the “Sel cat. L” value is “++ (++ means a Ki(cathepsin L)/Ki(calpain) ratio of ≧50)”. The “Sel cat. S” value at cathepsin S is on record as “++ (++ means a Ki(cathepsin S)/Ki(calpain) ratio of ≧100)”.

Turning to `NC(=O)C(=O)C(Cc1ccccc1)NC(=O)c1cccnc1-n1ccc(-c2cccc(C(F)(F)F)c2)n1` (centres unmarked) [Example 83, N-(3-Amino-1-benzyl-2,3-dioxopropyl)-2-{3-[3-(trifluoromethyl)phenyl]-1H-pyrazol-1-yl}nicotinamide], the “Sel cat. B” value at cathepsin B was “+ (+ means 10≦Ki(cathepsin B)/Ki(calpain)<30)”. The “Sel cat. K” value on cathepsin K was “++ (++ means a Ki(cathepsin K)/Ki(calpain) ratio of ≧30)”. In addition, the “Sel cat. L” value on cathepsin L is “++ (++ means a Ki(cathepsin L)/Ki(calpain) ratio of ≧50)”. In addition, the “Sel cat. S” value on cathepsin S is recorded as “++ (++ means a Ki(cathepsin S)/Ki(calpain) ratio of ≧100)”.

On to `NC(=O)C(=O)C(Cc1ccc(OCc2ccccc2)cc1)NC(=O)c1cccnc1-n1ccc(-c2ccccc2)n1` (centres unmarked) [Example 127, N-[3-Amino-2,3-dioxo-1-({4-[(phenylmethyl)oxy]phenyl}methyl)propyl]-2-(3-phenyl-1H-pyrazol-1-yl)pyridine-3-carboxamide], for which, on cathepsin B, the “Sel cat. B” value was “++ (++ means a Ki(cathepsin B)/Ki(calpain) ratio of ≧30)”. For the same molecule, at cathepsin K, the “Sel cat. K” value is “++ (++ means a Ki(cathepsin K)/Ki(calpain) ratio of ≧30)”. At cathepsin L, the “Sel cat. L” value is recorded as “++ (++ means a Ki(cathepsin L)/Ki(calpain) ratio of ≧50)”. At cathepsin S, the “Sel cat. S” value was “++ (++ means a Ki(cathepsin S)/Ki(calpain) ratio of ≧100)”.

In the case of `CC(C)c1ccc(-c2ccn(-c3ncccc3C(=O)NC(Cc3ccccc3)C(=O)C(N)=O)n2)cc1` (centres unmarked) [Example 87, N-[3-Amino-2,3-dioxo-1-(phenylmethyl)propyl]-2-{3-[4-(1-methylethyl)phenyl]-1H-pyrazol-1-yl}pyridine-3-carboxamide], the “Sel cat. B” value on cathepsin B is reported as “++ (++ means a Ki(cathepsin B)/Ki(calpain) ratio of ≧30)”. Moreover, at cathepsin K, the “Sel cat. K” value was “++ (++ means a Ki(cathepsin K)/Ki(calpain) ratio of ≧30)”. Moreover, the “Sel cat. L” value on cathepsin L is “++ (++ means a Ki(cathepsin L)/Ki(calpain) ratio of ≧50)”. Besides, on cathepsin S, the “Sel cat. S” value is reported as “++ (++ means a Ki(cathepsin S)/Ki(calpain) ratio of ≧100)”.

Turning to `COc1ccc2c(c1)-c1nn(-c3ncccc3C(=O)NC(Cc3ccccc3)C(=O)C(N)=O)cc1CO2` (centres unmarked) [Example 183, N-[3-Amino-2,3-dioxo-1-(phenylmethyl)propyl]-2-[8-(methyloxy)chromeno[4,3-c]pyrazol-2(4H)-yl]pyridine-3-carboxamide], at cathepsin B, the “Sel cat. B” value was “+ (+ means 10≦Ki(cathepsin B)/Ki(calpain)<30)”. Also, the “Sel cat. K” value on cathepsin K is on record as “+ (+ means 10≦Ki(cathepsin K)/Ki(calpain)<30)”. Moreover, on cathepsin L, the “Sel cat. L” value was “++ (++ means a Ki(cathepsin L)/Ki(calpain) ratio of ≧50)”. Moreover, the “Sel cat. S” value at cathepsin S is “++ (++ means a Ki(cathepsin S)/Ki(calpain) ratio of ≧100)”.

With `NC(=O)C(=O)C(Cc1cccc(F)c1)NC(=O)c1cccnc1-n1ccc(-c2ccccc2OC(F)(F)F)n1` (centres unmarked) [Example 162, N-{3-Amino-1-[(3-fluorophenyl)methyl]-2,3-dioxopropyl}-2-(3-{2-[(trifluoromethyl)oxy]phenyl}-1H-pyrazol-1-yl)pyridine-3-carboxamide], the “Sel cat. B” value at cathepsin B is recorded as “++ (++ means a Ki(cathepsin B)/Ki(calpain) ratio of ≧30)”. In addition, the “Sel cat. K” value at cathepsin K is listed as “++ (++ means a Ki(cathepsin K)/Ki(calpain) ratio of ≧30)”. For the same molecule, the “Sel cat. L” value at cathepsin L is recorded as “++ (++ means a Ki(cathepsin L)/Ki(calpain) ratio of ≧50)”. For the same molecule, the “Sel cat. S” value on cathepsin S was “++ (++ means a Ki(cathepsin S)/Ki(calpain) ratio of ≧100)”.

For the molecule `NC(=O)C(=O)C(Cc1ccccc1)NC(=O)c1cccnc1-n1ccc(-c2ccccn2)n1` (centres unmarked) [Example 35, N-(3-Amino-1-benzyl-2,3-dioxopropyl)-2-(3-pyridin-2-yl-1H-pyrazol-1-yl)nicotinamide], the “Sel cat. B” value on cathepsin B is “+ (+ means 10≦Ki(cathepsin B)/Ki(calpain)<30)”. Moreover, at cathepsin K, the “Sel cat. K” value is on record as “+ (+ means 10≦Ki(cathepsin K)/Ki(calpain)<30)”. In addition, at cathepsin L, the “Sel cat. L” value is “++ (++ means a Ki(cathepsin L)/Ki(calpain) ratio of ≧50)”. The “Sel cat. S” value at cathepsin S is given as “++ (++ means a Ki(cathepsin S)/Ki(calpain) ratio of ≧100)”.

With `NC(=O)C(=O)C(Cc1ccccc1)NC(=O)c1cccnc1-n1ccc(-c2cccc(N3CCOCC3)c2)n1` (centres unmarked) [Example 58, N-(3-Amino-1-benzyl-2,3-dioxopropyl)-2-[3-(3-morpholin-4-ylphenyl)-1H-pyrazol-1-yl]nicotinamide], the “Sel cat. B” value at cathepsin B is reported as “+ (+ means 10≦Ki(cathepsin B)/Ki(calpain)<30)”. The “Sel cat. K” value at cathepsin K is “+ (+ means 10≦Ki(cathepsin K)/Ki(calpain)<30)”. Further, the “Sel cat. L” value at cathepsin L is “++ (++ means a Ki(cathepsin L)/Ki(calpain) ratio of ≧50)”. Also, at cathepsin S, the “Sel cat. S” value was “++ (++ means a Ki(cathepsin S)/Ki(calpain) ratio of ≧100)”.

For the molecule `Cc1ccccc1-c1ccn(-c2ncccc2C(=O)NC(Cc2ccccc2)C(=O)C(N)=O)n1` (centres unmarked) [Example 93, N-[3-Amino-2,3-dioxo-1-(phenylmethyl)propyl]-2-[3-(2-methylphenyl)-1H-pyrazol-1-yl]pyridine-3-carboxamide], on cathepsin B, the “Sel cat. B” value is recorded as “++ (++ means a Ki(cathepsin B)/Ki(calpain) ratio of ≧30)”. Moreover, on cathepsin K, the “Sel cat. K” value is on record as “+ (+ means 10≦Ki(cathepsin K)/Ki(calpain)<30)”. At cathepsin L, the “Sel cat. L” value is listed as “++ (++ means a Ki(cathepsin L)/Ki(calpain) ratio of ≧50)”. On cathepsin S, the “Sel cat. S” value was “++ (++ means a Ki(cathepsin S)/Ki(calpain) ratio of ≧100)”.

`NC(=O)C(=O)C(Cc1ccc(F)cc1)NC(=O)c1cccnc1-n1ccc(-c2ccccc2)n1` (centres unmarked) [Example 123, N-{3-Amino-1-[(4-fluorophenyl)methyl]-2,3-dioxopropyl}-2-(3-phenyl-1H-pyrazol-1-yl)pyridine-3-carboxamide]: the “Sel cat. B” value on cathepsin B is “++ (++ means a Ki(cathepsin B)/Ki(calpain) ratio of ≧30)”. For the same molecule, on cathepsin K, the “Sel cat. K” value was “++ (++ means a Ki(cathepsin K)/Ki(calpain) ratio of ≧30)”. Besides, the “Sel cat. L” value on cathepsin L is recorded as “++ (++ means a Ki(cathepsin L)/Ki(calpain) ratio of ≧50)”. Moreover, the “Sel cat. S” value on cathepsin S is “++ (++ means a Ki(cathepsin S)/Ki(calpain) ratio of ≧100)”.

In the case of `NC(=O)C(=O)C(Cc1ccccc1)NC(=O)c1cccnc1-n1cc2c(n1)-c1ccccc1S(=O)(=O)C2` (centres unmarked) [Example 174, N-[3-Amino-2,3-dioxo-1-(phenylmethyl)propyl]-2-(5,5-dioxidothiochromeno[4,3-c]pyrazol-2(4H)-yl)pyridine-3-carboxamide], the “Sel cat. B” value on cathepsin B is “+ (+ means 10≦Ki(cathepsin B)/Ki(calpain)<30)”. In addition, the “Sel cat. K” value on cathepsin K is listed as “+ (+ means 10≦Ki(cathepsin K)/Ki(calpain)<30)”. Besides, the “Sel cat. L” value at cathepsin L is reported as “++ (++ means a Ki(cathepsin L)/Ki(calpain) ratio of ≧50)”. Further, the “Sel cat. S” value on cathepsin S was “++ (++ means a Ki(cathepsin S)/Ki(calpain) ratio of ≧100)”.

Take `NC(=O)C(=O)C(Cc1ccccc1)NC(=O)c1cccnc1-n1ccc(-c2ccccc2)n1` (centres unmarked) [Example 5, N-(3-Amino-1-benzyl-2,3-dioxopropyl)-2-(3-phenyl-1H-pyrazol-1-yl)nicotinamide]: the “Sel cat. B” value on cathepsin B is given as “+ (+ means 10≦Ki(cathepsin B)/Ki(calpain)<30)”. Also, the “Sel cat. K” value on cathepsin K is reported as “+ (+ means 10≦Ki(cathepsin K)/Ki(calpain)<30)”. Further, the “Sel cat. L” value at cathepsin L was “++ (++ means a Ki(cathepsin L)/Ki(calpain) ratio of ≧50)”. In addition, the “Sel cat. S” value at cathepsin S was “++ (++ means a Ki(cathepsin S)/Ki(calpain) ratio of ≧100)”.
